In ChEMBL document CHEMBL1909046, “DrugMatrix in vitro pharmacology data” one finds IC50 and Ki data, which are given here for 16 molecules.

Structures are written as SMILES.

For experiment [1], the target named is T1, Alpha-1D adrenergic receptor (Homo sapiens, UniProt P25100).
T1 sequence (P25100 whole entry): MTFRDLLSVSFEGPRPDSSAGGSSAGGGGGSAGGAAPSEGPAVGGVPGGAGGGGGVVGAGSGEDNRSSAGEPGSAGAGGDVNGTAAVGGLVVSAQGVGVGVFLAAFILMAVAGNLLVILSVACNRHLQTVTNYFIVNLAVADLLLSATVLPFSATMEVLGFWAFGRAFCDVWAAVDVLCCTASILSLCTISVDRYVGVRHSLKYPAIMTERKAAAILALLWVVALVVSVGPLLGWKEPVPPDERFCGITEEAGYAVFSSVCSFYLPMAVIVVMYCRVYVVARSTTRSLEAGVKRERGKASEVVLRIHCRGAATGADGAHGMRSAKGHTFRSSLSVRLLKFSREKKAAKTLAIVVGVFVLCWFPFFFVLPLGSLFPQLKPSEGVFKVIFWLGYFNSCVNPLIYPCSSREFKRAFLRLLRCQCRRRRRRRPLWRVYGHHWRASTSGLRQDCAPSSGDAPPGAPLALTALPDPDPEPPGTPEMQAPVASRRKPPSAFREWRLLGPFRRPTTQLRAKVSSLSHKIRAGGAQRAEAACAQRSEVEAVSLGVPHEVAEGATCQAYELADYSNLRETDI
The class given is cell membranes, HEK293, Membrane.

Experiment [2] concerns the target 5-hydroxytryptamine receptor 4 (Cavia porcellus, UniProt O70528). The class given is cell membranes, Dunkin-Hartley, Striatum, Membrane.
Another experiment concerns the target Vasopressin V1a receptor (Homo sapiens, UniProt P37288). The class given is cell membranes, Membrane. The note with it: hek293.
The next experiment addresses T2, B2 bradykinin receptor (Homo sapiens, UniProt P30411).
T2 sequence (P30411 whole entry): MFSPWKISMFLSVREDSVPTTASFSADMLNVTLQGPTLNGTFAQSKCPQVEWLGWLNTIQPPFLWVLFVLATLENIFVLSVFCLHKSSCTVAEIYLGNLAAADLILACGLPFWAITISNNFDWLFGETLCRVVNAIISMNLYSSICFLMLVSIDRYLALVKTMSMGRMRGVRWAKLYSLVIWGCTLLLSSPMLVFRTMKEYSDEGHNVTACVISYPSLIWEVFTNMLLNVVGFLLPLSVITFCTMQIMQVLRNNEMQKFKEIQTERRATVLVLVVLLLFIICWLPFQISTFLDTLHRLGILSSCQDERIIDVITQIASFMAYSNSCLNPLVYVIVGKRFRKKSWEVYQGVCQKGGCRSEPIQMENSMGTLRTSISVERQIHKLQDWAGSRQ
The class given is cell membranes, Membrane. The note with it: chem-1.

In another experiment the target is T3, Cathepsin G (Homo sapiens, UniProt P08311).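 Further: inhibition of Cathepsin G enzyme activity, tested on an AMC-conjugated peptide substrate.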
T3 sequence (P08311 whole entry): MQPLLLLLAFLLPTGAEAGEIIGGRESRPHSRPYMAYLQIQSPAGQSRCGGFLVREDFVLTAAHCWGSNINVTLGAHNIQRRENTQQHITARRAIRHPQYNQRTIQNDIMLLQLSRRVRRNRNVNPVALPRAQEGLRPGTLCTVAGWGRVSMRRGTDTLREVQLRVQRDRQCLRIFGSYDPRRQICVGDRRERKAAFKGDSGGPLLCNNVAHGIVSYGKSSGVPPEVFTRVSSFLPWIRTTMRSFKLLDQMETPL
The class given is tissue-based. The note with it: neutrophil.

The next experiment has as its target T4, Calcitonin receptor (Homo sapiens, UniProt P30988).
T4 sequence (P30988 whole entry): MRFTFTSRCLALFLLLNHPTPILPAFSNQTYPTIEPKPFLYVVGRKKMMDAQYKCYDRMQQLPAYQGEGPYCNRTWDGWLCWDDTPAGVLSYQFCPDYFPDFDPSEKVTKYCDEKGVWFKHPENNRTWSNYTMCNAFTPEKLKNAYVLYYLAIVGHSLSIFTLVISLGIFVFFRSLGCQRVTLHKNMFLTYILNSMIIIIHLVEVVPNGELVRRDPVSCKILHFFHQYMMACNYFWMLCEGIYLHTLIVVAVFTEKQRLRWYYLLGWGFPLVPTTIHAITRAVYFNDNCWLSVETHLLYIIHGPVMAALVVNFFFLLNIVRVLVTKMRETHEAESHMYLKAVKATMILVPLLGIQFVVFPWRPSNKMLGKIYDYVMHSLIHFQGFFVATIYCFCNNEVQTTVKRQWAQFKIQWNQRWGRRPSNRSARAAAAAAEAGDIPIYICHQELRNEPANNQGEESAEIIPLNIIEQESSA
The class given is cell membranes, Membrane. The note with it: t47d.

Experiment [3] has as its target T5, Muscarinic acetylcholine receptor M4 (Homo sapiens, UniProt P08173).
T5 sequence (P08173 whole entry): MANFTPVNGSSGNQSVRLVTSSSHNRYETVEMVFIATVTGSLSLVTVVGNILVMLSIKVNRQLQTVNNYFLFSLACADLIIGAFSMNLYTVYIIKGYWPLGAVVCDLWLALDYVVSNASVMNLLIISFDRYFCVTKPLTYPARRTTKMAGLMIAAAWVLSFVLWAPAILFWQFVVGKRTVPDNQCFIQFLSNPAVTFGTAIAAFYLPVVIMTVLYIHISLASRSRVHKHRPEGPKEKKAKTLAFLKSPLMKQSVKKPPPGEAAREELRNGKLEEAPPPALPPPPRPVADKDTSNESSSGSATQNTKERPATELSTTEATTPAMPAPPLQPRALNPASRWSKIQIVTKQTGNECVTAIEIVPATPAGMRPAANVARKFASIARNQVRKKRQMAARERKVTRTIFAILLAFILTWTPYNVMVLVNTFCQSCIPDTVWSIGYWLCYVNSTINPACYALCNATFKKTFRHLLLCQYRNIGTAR
In kind it is cell membranes, CHO-K1, Membrane. The note with it: cho-k1.
Further: in other assays of this panel Not Active means under 50% inhibition at 10 µM.

Vasopressin V1a receptor, sequence (P37288 whole entry): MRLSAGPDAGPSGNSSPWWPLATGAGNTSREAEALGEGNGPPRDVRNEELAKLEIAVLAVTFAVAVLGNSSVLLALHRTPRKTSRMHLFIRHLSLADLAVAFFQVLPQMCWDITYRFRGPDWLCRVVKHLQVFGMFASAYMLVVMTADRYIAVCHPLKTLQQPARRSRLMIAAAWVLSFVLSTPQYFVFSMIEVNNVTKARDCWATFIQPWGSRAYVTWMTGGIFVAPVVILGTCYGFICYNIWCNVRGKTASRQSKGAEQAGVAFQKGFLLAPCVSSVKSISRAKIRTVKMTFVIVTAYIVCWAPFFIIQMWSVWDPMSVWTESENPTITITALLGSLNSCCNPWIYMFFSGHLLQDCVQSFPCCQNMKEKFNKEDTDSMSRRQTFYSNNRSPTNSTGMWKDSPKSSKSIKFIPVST
5-hydroxytryptamine receptor 4, sequence (O70528 whole entry): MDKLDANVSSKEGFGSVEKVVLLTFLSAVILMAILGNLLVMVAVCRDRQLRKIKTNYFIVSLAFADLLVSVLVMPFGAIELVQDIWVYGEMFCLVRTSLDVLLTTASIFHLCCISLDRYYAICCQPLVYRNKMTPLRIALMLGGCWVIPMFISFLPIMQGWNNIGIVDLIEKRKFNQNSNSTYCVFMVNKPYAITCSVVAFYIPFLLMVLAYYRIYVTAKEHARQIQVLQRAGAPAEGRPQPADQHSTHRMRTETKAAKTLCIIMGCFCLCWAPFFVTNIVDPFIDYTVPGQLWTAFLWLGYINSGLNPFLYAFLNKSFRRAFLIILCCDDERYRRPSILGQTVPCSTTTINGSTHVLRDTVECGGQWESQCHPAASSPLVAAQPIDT

Take `C#CCN(C)[C@H](C)Cc1ccccc1` [SELEGILINE]: the 50% inhibitory concentration (IC50) result (in experiment [1] (hek293); in experiment [2]; against Vasopressin V1a receptor; against B2 bradykinin receptor; against Cathepsin G; at Calcitonin receptor) was “Not Active” throughout. Moreover, the IC50 entry in experiment [3] is “Not Active”.

In the case of `CO[C@H]1C[C@@H]2CC[C@@H](C)[C@@](O)(O2)C(=O)C(=O)N2CCCC[C@H]2C(=O)O[C@H]([C@H](C)C[C@@H]2CC[C@@H](O)[C@H](OC)C2)CC(=O)[C@H](C)/C=C(\C)[C@@H](O)[C@@H](OC)C(=O)[C@H](C)C[C@H](C)/C=C/C=C/C=C/1C` [SIROLIMUS], the IC50 entry (in experiment [1] (hek293); in experiment [2]; against Vasopressin V1a receptor; on B2 bradykinin receptor; at Cathepsin G; on Calcitonin receptor) was “Not Active” throughout. Also, in experiment [3], the IC50 result is “Not Active”.

As for `CN[C@@H]1[C@H](O)[C@H](NC)[C@H]2O[C@@]3(O)C(=O)C[C@@H](C)O[C@H]3O[C@@H]2[C@H]1O` [SPECTINOMYCIN], the 50% inhibitory concentration (IC50) result (in experiment [1] (hek293); in experiment [2]; against Vasopressin V1a receptor; against B2 bradykinin receptor; against Cathepsin G; on Calcitonin receptor) was “Not Active” each time. Further, in experiment [3], the IC50 entry is given as “Not Active”.

As to `Nc1ccc(S(=O)(=O)Nc2ncccn2)cc1` [SULFADIAZINE], the IC50 result (in experiment [1] (hek293); in experiment [2]; at Vasopressin V1a receptor; against B2 bradykinin receptor; on Cathepsin G; at Calcitonin receptor) was “Not Active” each time. The concentration for half-maximal inhibition (IC50) entry in experiment [3] is “Not Active”.

In the case of `COc1ncnc(NS(=O)(=O)c2ccc(N)cc2)c1OC` [SULFADOXINE], the IC50 result (in experiment [1] (hek293); in experiment [2]; on Vasopressin V1a receptor; against B2 bradykinin receptor; on Cathepsin G; on Calcitonin receptor) was “Not Active” throughout. Besides, the IC50 result in experiment [3] was “Not Active”.

For `Nc1ccc(S(=O)(=O)Nc2nccs2)cc1` [SULFATHIAZOLE], the concentration for half-maximal inhibition (IC50) result (in experiment [1] (hek293); in experiment [2]; on Vasopressin V1a receptor; against B2 bradykinin receptor; at Cathepsin G; on Calcitonin receptor) was “Not Active” throughout. For the same molecule, the IC50 entry in experiment [3] was “Not Active”.

As to `C[C@]12CC[C@H]3[C@@H](CCC4=CC(=O)CC[C@@]43C)[C@@H]1CC[C@@H]2O` [TESTOSTERONE], the IC50 result (in experiment [1] (hek293); in experiment [2]; against Vasopressin V1a receptor; at B2 bradykinin receptor; against Cathepsin G; on Calcitonin receptor) was “Not Active” throughout. Also, in experiment [3], the IC50 entry is given as “Not Active”.

On to `CC(C)(C)NC[C@H](O)COc1nsnc1N1CCOCC1` [TIMOLOL], for which the 50% inhibitory concentration (IC50) entry (in experiment [1] (hek293); in experiment [2]; against Vasopressin V1a receptor; against B2 bradykinin receptor; on Cathepsin G; on Calcitonin receptor) was “Not Active” each time. Further, in experiment [3], the half-inhibitory concentration (IC50) entry is “Not Active”.

`CCS(=O)(=O)CCn1c([N+](=O)[O-])cnc1C` [TINIDAZOLE]: the concentration for half-maximal inhibition (IC50) entry (in experiment [1] (hek293); in experiment [2]; against Vasopressin V1a receptor; on B2 bradykinin receptor; against Cathepsin G; at Calcitonin receptor) was “Not Active” throughout. In experiment [3], the IC50 entry was “Not Active”.

Consider `C[C@@H]1C[C@H]2[C@@H]3CCC4=CC(=O)C=C[C@]4(C)C3=CC[C@]2(C)[C@H]1C(=O)CN1CCN(c2cc(N3CCCC3)nc(N3CCCC3)n2)CC1` [TIRILAZAD], for which the concentration for half-maximal inhibition (IC50) entry (in experiment [1] (hek293); in experiment [2]; against Vasopressin V1a receptor; against B2 bradykinin receptor; against Cathepsin G; on Calcitonin receptor) was “Not Active” each time. Besides, the concentration for half-maximal inhibition (IC50) result in experiment [3] is “Not Active”.

On to `NC[C@H]1O[C@H](O[C@H]2[C@H](O)[C@@H](O[C@H]3O[C@H](CO)[C@@H](O)[C@H](N)[C@H]3O)[C@H](N)C[C@@H]2N)[C@H](N)C[C@@H]1O` [TOBRAMYCIN], for which the IC50 entry (in experiment [1] (hek293); in experiment [2]; against Vasopressin V1a receptor; against B2 bradykinin receptor; at Cathepsin G; at Calcitonin receptor) was “Not Active” each time. In experiment [3], the concentration for half-maximal inhibition (IC50) entry is “Not Active”.

As for `O=c1n(CCCN2CCN(c3cccc(Cl)c3)CC2)nc2ccccn12` [TRAZODONE], the IC50 in experiment [1] (read-out: IC50) is 0.265 µM; in experiment [2], “Not Active”; against Vasopressin V1a receptor, “Not Active”; on B2 bradykinin receptor, “Not Active”; on Cathepsin G, “Not Active”; on Calcitonin receptor, “Not Active”. The IC50 result in experiment [3] was “Not Active”. Besides, in experiment [1] (read-out: Ki), the inhibitory constant (Ki) came out at 0.13 µM.

`O=C(O)C(Cl)(Cl)Cl` [TRICHLOROACETIC ACID]: the IC50 entry (in experiment [1] (hek293); in experiment [2]; on Vasopressin V1a receptor; on B2 bradykinin receptor; against Cathepsin G; at Calcitonin receptor) was “Not Active” each time. Also, the half-maximal inhibitory concentration (IC50) result in experiment [3] is given as “Not Active”.

For `COc1ccc(CN2CCNCC2)c(OC)c1OC` [TRIMETAZIDINE], the IC50 entry (in experiment [1] (hek293); in experiment [2]; on Vasopressin V1a receptor; against B2 bradykinin receptor; against Cathepsin G; on Calcitonin receptor) was “Not Active” throughout. Further, in experiment [3], the IC50 entry is “Not Active”.

`CC(=O)O[C@H]1C[C@@H]2CC[C@@H]3[C@H](CC[C@@]4(C)[C@H]3C[C@H]([N+]3(C)CCCCC3)[C@@H]4OC(C)=O)[C@@]2(C)C[C@@H]1N1CCCCC1.[Br-]` [VECURONIUM BROMIDE]: the IC50 result (in experiment [1] (hek293); in experiment [2]; at Vasopressin V1a receptor; on B2 bradykinin receptor; on Cathepsin G; on Calcitonin receptor) was “Not Active” throughout. Moreover, in experiment [3], the 50% inhibitory concentration (IC50) result was “Not Active”.

`COc1cc(C(=O)NS(=O)(=O)c2ccccc2C)ccc1Cc1cn(C)c2ccc(NC(=O)OC3CCCC3)cc12` [ZAFIRLUKAST]: the IC50 entry (in experiment [1] (hek293); in experiment [2]; at Vasopressin V1a receptor; on B2 bradykinin receptor; at Cathepsin G; at Calcitonin receptor) was “Not Active” each time. In addition, the IC50 result in experiment [3] was “Not Active”.
